Patent US11020419B2, “Use of polyinosinic-polycytidylic acid compositions in treatment of malignant effusion” (BIOSYNGEN PTE, LTD, priority 2016, dated 2021)

Legend:
S180 cell line = assay: Concomitant use of BSG with chemotherapeutic drugs in S180 cell line induced MA (Example 4); assay type: in vivo, mice; conditions: for Ascites Vol.: D12 (2 d post-treatment), 7 days treatment from 4 d post-inoculation
Experimental: Materials: S180 cell line (purchased from CCTCC), female BAL/c mice (6-7 weeks old purchased from Centre of Laboratory Animal for Medical Science, Guangdong), BSG (2 mg/ml, produced in house), DDP (cisplatin, 5 mg/ml, from Jingasu Hansoh Pharma, batch no. 160603), CTX (cyclophosphamide), Sodium Chloride for Injection (2.25 g, 250 ml, 0.9%, from Zhejiang Tianrui, pharmaceutica, batch no. 116102506). Methods: 1. MA induction and propagation in mice: take logarithmic growth phase cells, adjust cell density to 5×10^6/ml, inject mice (i.p., 0.4 ml per animal). Collect MA fluid from mice 7-8 days post inoculation, adjust cell density to 2×10^7/ml and inject another 4 mice (i.p., 0.4 ml per animal). Collect MA fluid again from mice 6-7 days post inoculation, adjust cell density to 5×10^6/ml and inoculate 2×10^6 cells to 48 mice before grouping. 2. Grouping: randomly divide mice 4 d post-inoculation according to body weight into A, B, C, D, E, F groups with 8 mice per group. Treat mice with A. BSG (7.5 mg/kg), B. CTX (50 mg/kg), C. DDP (0.5 mg/kg), D. BSG (7.5 mg/kg)+CTX (50 mg/kg), E. BSG (7.5 mg/kg)+DDP (0.5 mg/kg), F. N.S control for 7 days (Grouping detail see Table 7).
3. Observations: 1) record mice behavior and skin/fur glossiness daily, measure body weights and abdominal girth every two days; 2) 2 d post-treatment (D12), obtain blood from eye venous plexus and separate serum for while blood cell count (at least 20 ul). After obtaining blood, execute mice by cervical dislocation, measure pleural fluid volume and record color of fluid; 3) calculate rate of MPE suppression (%)=(1−ave. MPE volume of treatment groups/ave. MA volume of control group)×100%.

H22 cells = system: H22 cells
Experimental: MPE usually refers to tumors originated from the chest metastasis to the pleural space, which leads to the formation of excessive fluid containing cancerous cells and it accounts for about 50% of all pleural effusions. […] Materials: mice liver cancer cell line line (purchased from CCTCC), BAL/c mice (female, 6-7 weeks old, 18-22 g, SPF, purchased from Wei Tong Li Hua, Beijing). BSG, 2 mg/ml, produced in house. Comparator CTX (cyclophosphamide, 0.2 g, from Baxter Oncology GmbH, batch no. 6D111A). Sodium Chloride for Injection (2.25 g, 250 ml, 0.9%, from Zhejiang Tianrui, pharmaceutica, batch no. 116102506).
Methods: Thaw H22 cells, adjust density to 1×10^7 cells/ml, then inject 3 mice, 0.2 ml each. Collect excessive fluid from the injected mice on after 7 days and adjust cell density to 5×10^5/ml, inject another […] into the peritoneal muscle, 0.2 ml/mouse. Divided the mice randomly into 6 groups of 14 mice each three days post-inoculation, among the 14 mice of each group, 6 will be kept separately for survival study (see Table 4b). Treat mice continuously (grouping detail see Table 4a and 4b).
Observations: 1) record mice behavior and skin/fur glossiness daily, measure body weights every two days; 2) 5 h post-treatment on D6, obtain blood from eye venous plexus until death and separate serum for white blood cell count (at least 20 ul); after obtaining blood, execute mice by cervical dislocation, measure pleural fluid volume and obtain thymus, spleen and lung, record organ weight; 3) record survival status of the rest of mice in Groups A2 to E2, calculate average increase in life span (ILS) using formula=[(ave. survival days of treatment groups/ave. survival days of control group)−1]×100%; 4) calculate rate of MPE suppression (%)=(1−ave. MPE volume of treatment groups/ave. MPE volume of control group)×100%.

[1] = system: mice liver cancer cell line H22; assay: BSG in preventing and controlling MA in H22 mouse model (Example 2); assay type: in vivo; conditions: for number of mice with nodules at the 7th day post inoculation: 9 mice each; for No. mice survive through Day 15: 9 mice/group; for ILS (average increase in life span): vs control group
Experimental: Materials: mice liver cancer cell line H22; female mice 6-8 weeks old, 18-22 g. BSG, containing 2 mg/ml PIC, produced in-house; comparator, DDP purchased from Jiangzu Haoseng; negative control normal saline (N.S).
Methods: Thaw H22 cell line, wash before inject intraperitoneally (i.p.) into 2 female BALB/c mice, and wait 10 days for peritoneal fluid accumulation. Draw accumulated fluid on D10, adjust the cell density at 1×10^7/ml. Inject another 54 mice via i.p. route with 0.2 ml of the fluid containing total of 2×10^6 cancerous cells. Pick 18 mice and divide into 2 groups at random 24 h post-inoculation. Each group of mice receives either A. BSG (subcutaneous, s.c. 200 ug/ul) or B. DDP (intraperitoneal, i.p. 20 ug/ul) at dosage set out below as a preventive measure. Treat mice daily for 14 days. The rest of mice were divided into 4 groups at random 5 d post-inoculation, namely C. BSG group (s.c.), D. BSG group (i.p.), E. DDP group (i.p.), and F. control group (s.c., N.S). Treat mice daily for 10 days (grouping detail see table below).
MA volume of treatment groups/ave. MA volume of control group)×100%.

[2] = BSG 7.5 mg/kg i.m., CTX 50 mg/kg i.m., DDP 0.5 mg/kg i.p., alone or combined
[3] = D12, BSG 7.5 mg/kg i.m., CTX 50 mg/kg i.m., DDP 0.5 mg/kg i.p., alone or combined
[4] = survival groups, 6 mice each, i.m., BSG 7.5 mg/kg, CTX 30 mg/kg, alone or combined
[5] = preventive, from 24 h post-inoculation, daily 14 days, BSG 200 ug s.c. (Group A), DDP 20 ug i.p. (Group B)
[6] = treatment from 5 d post-inoculation, daily 10 days, i.p.: BSG 200 ug (Group D), DDP 20 ug (Group E)

O=P1(N(CCCl)CCCl)NCCCO1 (stereo not shown) [CTX, cyclophosphamide]
Ascites Vol. (S180 cell line; [2]): 2.84 mL | MA color recorded (S180 cell line; [3]): 3 mice with bloody ascites, 4 faintly red and 1 milky color | MA Suppression (S180 cell line; D12, BSG 7.5 mg/kg i.m., CTX 50 mg/kg i.m., DDP 0.5 mg/kg i.p., alone or combined, vs N.S control): 63.5% | body weight on D7 (H22 cells; BSG high dose 7.5 mg/kg, CTX 30 mg/kg, combined, i.m., FIG. 5): lower body weight | organ weight post treatment (thymus and spleen) (H22 cells; CTX 30 mg/kg i.m., FIG. 4): lower average weight of organ | Ave. survival (H22 cells; i.m., BSG 7.5 mg/kg, CTX 30 mg/kg, alone or combined): 6.00 days | ILS (average increase in life span) (H22 cells; i.m., BSG 7.5 mg/kg, CTX 30 mg/kg, alone or combined, vs control, % only in formula b145): 2.86% | No. of Mice D 3 (H22 cells; [4]): 6 | No. of Mice D 4 (H22 cells; [4]): 6 | No. of Mice D 5 (H22 cells; [4]): 4 | No. of Mice D 6 (H22 cells; [4]): 1 | No. of Mice D 7 (H22 cells; [4]): 1 | No. of Mice D 8 (H22 cells; [4]): 0 | No. of Mice D 9 (H22 cells; [4]): 0

N.N.[Cl][Pt][Cl] [DDP, cisplatin]
number of mice not alive until D12 (S180 cell line; 8 mice per group, DDP 0.5 mg/kg i.p. (Group C), BSG 7.5 mg/kg + CTX 50 mg/kg (Group D)): 4 | Ascites Vol. (S180 cell line; [2]): 5.63 mL | MA color recorded (S180 cell line; [3]): bloody ascites with one mouse having milky color | tumor burden and MA volume (body weight on D12) (S180 cell line; survived mice, D12, FIG. 7): largest tumor burden and MA volume | average cancerous cells in ascites ([1]; cell count 2D post-treatment (D15), preventive: BSG 200 ug s.c. (Group A), DDP 20 ug i.p. (Group B)): 3.17 10^6/ml | ascites volume (on average) ([1]; i.p. administration, BSG 200 ug, DDP 20 ug daily, D15): 1.7 mL | number of mice with nodules at the 7th day post inoculation ([1]; preventive groups, BSG 200 ug s.c. (Group A, small size nodule), DDP 20 ug i.p. (Group B, medium size nodules)): 6 | No. mice survive through Day 15 [1, 5]: 6 | Ave. survival [1, 5]: 14.4 days | ILS (average increase in life span) [1, 5]: 72% | number of mice with nodules at the 7th day post inoculation ([1]; treatment from 5 d, i.p.: BSG 200 ug (Group D), DDP 20 ug (Group E), medium size nodules): 6 | No. mice survive through Day 15 [1, 6]: 2 | Ave. survival [1, 6]: 12.8 days | ILS (average increase in life span) [1, 6]: 53%
